Holding throughout (format): in vivo
For assay [1], the system named is C57BL/6 mice. Description: Depression model test of anti-blepharoptosis caused by reserpine (akinesia, blepharoptosis, shell temperature). As to conditions: for Blepharoptosis, “out-of-circle” ratio and shell temperature after reserpine (effect in words) / Change in the shell temperature (ΔT ° C.) / Degree of eye-closure / responders at 10 mg/kg / Change in the shell temperature (T ° C.): 10 mg/kg intragastric 7 days; for Blepharoptosis, “out-of-circle” ratio and shell temperature after reserpine (effect in words): compared with the solvent control group; for “out-of-circle” ratio after reserpine compared with I-1 (in words): compared with I-1, p<0.05; for Change in the shell temperature (ΔT ° C.) / Degree of eye-closure / responders at 10 mg/kg / Change in the shell temperature (T ° C.): reserpine 4 mg/kg i.p.; for Change in the shell temperature (ΔT ° C.) / Change in the shell temperature (T ° C.): abdomen, two hours after reserpine; for Change in the shell temperature (ΔT ° C.) / Degree of eye-closure / Change in the shell temperature (T ° C.): ±SD; for Degree of eye-closure: score 0-4 one hour after reserpine; for responders at 10 mg/kg: Mus musculus, po, 1 h, one hour after reserpine, 7.5 cm circle, 15-second observation, read-out: “out-of-circle” ratio. The method, then: 120 male C57BL/6 mice were randomly selected to observe the number of their autonomic activity. The mice was placed into the YLS-1A multi-functional mice autonomic activity recorder, and after 1 min of adaption, the activity of the mice was counted within a time period from the end of 1st min to 4th min. 96 mice with the number of autonomic activity between 70˜140 were screened out, divided randomly into 8 groups, and intragastrically administrated with the drug compounds at a dose listed in Table 3, one time daily for 7 days consecutively. The solvent control group was administrated with 2% Tween-80 aqueous solution in the same volume. Except the normal control group, 30 min after the last administration, each group was injected intraperitoneally with reserpine at a dose of 4 mg/kg. Next, akinesia, blepharoptosis and shell temperature were observed.
I Akinesia: one hour after intraperitoneal injection of reserpine, the mice were placed at the center of a circle with a diameter of 7.5 cm for a 15-second observation to calculate the “out-of-circle” ratio.
II Blepharoptosis: one hour after intraperitoneal injection of reserpine, the eye closure of mice was observed and scored by the following standard: eyelids open, 0; eyelids ¼ closed, 1; eyelids 2/4 closed, 2; eyelids ¾ closed, 3; eyelids closed completely, 4.
III Shell temperature: two hours after intraperitoneal injection of reserpine, the shell temperature of the abdomen of the mice was measured.
120 C57BL/6 mice were randomly selected to observe the number of their autonomic activity. The method was the same with that of Experiment 1. 100 mice with the number of autonomic activity between 70˜140 were screened out, divided randomly into 10 groups, and intragastrically administrated with the drug compounds at a dose listed in Table 4, one time daily for 7 days consecutively. The mice in the normal group and the solvent control group were administrated with 2% Tween-80 aqueous solution in the same volume. Except the normal control group, 30 min after the last administration, each group was injected intraperitoneally with reserpine at a dose of 4 mg/kg. Next, akinesia, blepharoptosis and shell temperature were observed. Observation method was the same with that of Experiment 1.

Assay [2] has as its system C57BL/6 mice. Description: Number of autonomic activity of mice (YLS-1A autonomic activity recorder). As to conditions: for Number of Autonomic activity (time): 10 mg/kg intragastric once daily, counted 30 min after administration at 6th day; for Effect on autonomic activity of mice (in words): 10 mg/kg intragastric, one week, compared with the solvent control group. The protocol: 110 mice were randomly selected to observe the number of their autonomic activity. The mice was placed into the YLS-1A multi-functional mice autonomic activity recorder, and after 1 min of adaption, the mice's activity was counted within a time period from the end of 1st min to 4th min. 96 mice with the number of autonomic activity between 70˜140 were screened out, divided randomly into 8 groups, and intragastrically administrated with the drug compounds at a dose listed in Table 1, one time daily for 7 days consecutively. The solvent control group was administrated with 2% Tween-80 aqueous solution in the same volume. All mice were placed into the autonomic activity recorder 30 min after administration at 6th day. After 1 min of adaption, the mice's activity was counted within a time period from the end of 1st min to 4th min.
(§1) 130 mice were randomly selected to observe the number of their autonomic activity. The method was the same with that of Experiment 1. 108 mice with the number of autonomic activity between 70˜140 were screened out, divided randomly into 9 groups, and intragastrically administrated with the drug compounds at a dose listed in Table 2, one time daily for 7 days consecutively. The solvent control group was administrated with 2% Tween-80 aqueous solution in the same volume. 30 min after administration at 6th day, the number of the autonomic activity of each mouse was observed. 30 min after administration at 7th day, the immobility time in tail suspension test was observed. The method was the same with that in Experiment 1.

The subject of assay [3] is C57BL/6 mice. Description: "Acquired despair" depression model of tail suspension test in mice. As to conditions: for Effect on immobility time in tail suspension test (in words): 10 mg/kg intragastric for 7 days, compared with the solvent control group. The protocol: 30 min after administration at 7th day, the mice was fixed on a sustainer with a rubberized cloth at 1 cm close to the end of the tail of mice, making the mice hanged upside down. The head of the mice was about 30 cm above the table and its sight was separated from the neighboring mouse with a plate. Usually, the mice might manage to struggle in hopes of overcoming the abnormal body position. […] The accumulated immobility time within 6 min of each mouse was observed, which was regarded as “despair time”.
as §1

In another assay the test system is mice. Description: Anti-depression effect in the tested models (overall conclusion). As to conditions: in the tested model at the tested dose. The text has this: Based on the aforesaid experiments, the following conclusion can be drawn: • 1.
In assay [4] the test system is C57BL/6 mice. Description: Forced swimming experiment in mice. As to conditions: 10 mg/kg intragastric once daily for 7 days; 30 min after last administration; end of 2nd min to 6th min. The protocol: After 1˜2 days of adaptive feed, 80 male C57BL/6 mice, aged 6˜8 weeks and weighing 18˜22 g, were placed into the YLS-1A multi-functional mice autonomic activity recorder. After 1 min of adaption, the activity of the mice was counted within a time period from the end of 1st min to 4th min. 60 mice with the number of autonomic activity between 70˜140 were screened out, divided randomly into 6 groups, and intragastrically administrated with the drug compounds at a dose listed in Table 5, one time daily for 7 days consecutively. The solvent control group was administrated with 2% Tween-80 aqueous solution in the same volume. After the administration at 6th day, the mice were placed into a cylindrical aquarium with a water depth of 10 cm and 25° C. to force the mice to swim. After 15 min, the mice were taken out, dried and returned to the cage. 24 hours later, 30 min after the last intragastrical administration, the mice were placed into a glass bottle with a diameter of 10 cm, a height of 30 cm and a water depth of 10 cm, and the temperature of the water in the bottle was at 25° C. The mice were separated with an opaque partition, so as not to influence each other. After 2 min of adaption, an accumulated immobility time from the end of 2nd min to 6th min was recorded.

[5] abbreviates: Experiment 1, end of 1st min to 4th min.

Molecules are shown by their SMILES. “Also recorded” adds a separate entry of the source. Where a name gives a salt, the structure may show the parent alone. Read-outs that look alike come from different tables or passages of the source. Marks after values point to notes of the source that are not given here.

In the case of `CC(C)CNC(=O)/C=C/c1cc2c(c([N+](=O)[O-])c1)OCO2` [Compound I-2, N-isobutyl-5′-nitro-3′,4′-methylenedioxy cinnamamide], the “Blepharoptosis, “out-of-circle” ratio and shell temperature after reserpine (effect in words)” value in the assay on C57BL/6 mice [1] was “improved significantly”. The ““out-of-circle” ratio after reserpine compared with I-1 (in words)” value (from here on ““out-of-circle” ratio after reserpine”) in the assay on C57BL/6 mice [1] (10 mg/kg) is “increased markedly”. Moreover, in the assay on C57BL/6 mice [1] (Experiment 1), the “Change in the shell temperature (ΔT ° C.)” value (from here on “Change … (ΔT ° C.)”) was found to be 1.60 ± 0.18 °C, the Degree of eye-closure was determined as 1.67 ± 1.30 and the responders at 10 mg/kg amounted to 83%. In addition, the “Number of Autonomic activity (time)” value in the assay on C57BL/6 mice [2] (setting [5]) worked out at 102.00 ± 26.24 time.
With `CC(C)CNC(=O)/C=C/c1cc(I)c2c(c1)OCO2` [Compound I-3, N-isobutyl-5′-iodo-3′,4′-methylenedioxy cinnamamide], the “Blepharoptosis, “out-of-circle” ratio and shell temperature after reserpine (effect in words)” value in the assay on C57BL/6 mice [1] is reported as “improved significantly”. Also, in the assay on C57BL/6 mice [1] (10 mg/kg), the “Degree of eye closure / blepharoptosis after reserpine compared with I-1 (in words)” value is on record as “reduced” and the ““out-of-circle” ratio after reserpine” value is on record as “increased markedly”. For the same compound, in the assay on C57BL/6 mice [1] (Experiment 1), the “Change … (ΔT ° C.)” value came out at 1.72 ± 0.26 °C, the Degree of eye-closure is on record as 1.00 ± 1.13**^ΔΔ and the responders at 10 mg/kg came to 92%. Moreover, the “Number of Autonomic activity (time)” value in the assay on C57BL/6 mice [2] (setting [5]) was 94.42 ± 23.97 time.
Take `CC(C)CNC(=O)/C=C/c1cc(Cl)c2c(c1)OCO2` [Compound I-4, N-isobutyl-5′-chloro-3′,4′-methylenedioxy cinnamamide]: the “Effect on immobility time in tail suspension test (in words)” value in the assay with C57BL/6 mice [3] was “remarkably reduce the immobility time; also recorded: significantly shorten the immobility time”. The “Effect on antagonizing immobility in tail suspension test compared with I-1 (in words)” value with C57BL/6 mice [3] (10 mg/kg, compared with I-1, p<0.05) is listed as “better effect”. Moreover, the “Blepharoptosis, “out-of-circle” ratio and shell temperature after reserpine (effect in words)” value in the assay on C57BL/6 mice [1] was “improved significantly; also recorded: antagonizing the decrease of shell temperature, akinesia and improving the degree of eye closure”. In addition, in the assay on C57BL/6 mice [1] (10 mg/kg), the “Degree of eye closure / blepharoptosis after reserpine compared with I-1 (in words)” value was “reduced” and the ““out-of-circle” ratio after reserpine” value is listed as “increased markedly”. Besides, the “Improving akinesia, blepharoptosis and shell temperature: ranking among the tested compounds (in words)” value in the assay on C57BL/6 mice [1] (10 mg/kg, within the experiment) is recorded as “best effect”. Further, in the assay with C57BL/6 mice [1] (Experiment 1), the “Change … (ΔT ° C.)” value was 1.51 ± 0.31 °C, the Degree of eye-closure is reported as 0.17 ± 0.39**^ΔΔ and the responders at 10 mg/kg turned out to be 100%. Further, the “Effect on autonomic activity of mice (in words)” value in the assay on C57BL/6 mice [2] is given as “had no affect”. Also, the “Number of Autonomic activity (time)” value with C57BL/6 mice [2] (setting [5]) was found to be 94.75 ± 28.53 time. For the same compound, the “Anti-depression effect compared with the pharmacologic effect of I-1 (in words)” value in the assay on mice is “increased to some degree”.
As to `COc1cc(/C=C/C=C/C(=O)NCC(C)C)cc2c1OCO2` [Compound I-6, N-isobutyl-5-(5′-methoxy-3′,4′-methylenedioxyphenyl)pentadienamide], in the assay on C57BL/6 mice [1], the “Blepharoptosis, “out-of-circle” ratio and shell temperature after reserpine (effect in words)” value is listed as “improved significantly”. In addition, the ““out-of-circle” ratio after reserpine” value with C57BL/6 mice [1] (10 mg/kg) is reported as “increased markedly”. Also, in the assay with C57BL/6 mice [1] (Experiment 1), the “Change … (ΔT ° C.)” value came out at 1.84 ± 0.22 °C, the Degree of eye-closure is 2.08 ± 1.68 and the responders at 10 mg/kg stood at 67%. In the assay with C57BL/6 mice [2] (setting [5]), the “Number of Autonomic activity (time)” value was 98.83 ± 17.56 time.
Regarding `CN(C)C(=O)/C=C/c1cc2c(c(C(F)(F)F)c1)OCO2` [Compound I-8, N,N-dimethyl-5′-trifluoromethyl-3′,4′-methylenedioxy cinnamamide], in the assay with C57BL/6 mice [1], the “Blepharoptosis, “out-of-circle” ratio and shell temperature after reserpine (effect in words)” value is “remarkably improve; also recorded: antagonizing the decrease of shell temperature, akinesia and improving the degree of eye closure”. In the assay with C57BL/6 mice [1] (Experiment 2), the “Change in the shell temperature (T ° C.)” value came out at 27.60 ± 0.88 °C, the Degree of eye-closure is 2.30 ± 1.64 and the responders at 10 mg/kg amounted to 40%. Further, in the assay with C57BL/6 mice [2] (Experiment 2), the “Number of Autonomic activity (time)” value worked out at 84.00 ± 21.81 time.
Turning to `CNCCC(Oc1ccc(C(F)(F)F)cc1)c1ccccc1` (stereo not drawn) [fluoxetine hydrochloride, Fluoxetine hydrochloride, reference compound], the “Immobility time in the forced swimming test in mice(s)” value in the assay with C57BL/6 mice [4] is listed as 98.96 ± 32.43 s. The “Effect on immobility time in tail suspension test (in words)” value with C57BL/6 mice [3] is given as “reduce the immobility time in tail suspension test significantly”. In the assay with C57BL/6 mice [1] (hydrochloride), the “Blepharoptosis, “out-of-circle” ratio and shell temperature after reserpine (effect in words)” value was “obviously increase mice “out-of-circle” ratio and shell temperature, and significantly reduce the degree of eye closure of the mice; also recorded: improve the “out-of-circle” ratio obviously, and significantly reduce the degree of eye closure and raise the shell temperature”. Further, in the assay on C57BL/6 mice [1] (Experiment 1), the “Change … (ΔT ° C.)” value turned out to be 1.89 ± 0.21 °C, the Degree of eye-closure is on record as 1.42 ± 1.38**Δ and the responders at 10 mg/kg is 58%. In the assay on C57BL/6 mice [1] (Experiment 2), the “Change in the shell temperature (T ° C.)” value stood at 29.20 ± 0.54 °C, the Degree of eye-closure is recorded as 2.00 ± 1.33 and the responders at 10 mg/kg turned out to be 50%. Moreover, the “Effect on autonomic activity of mice (in words)” value with C57BL/6 mice [2] is “had no effect”. Also, the “Number of Autonomic activity (time)” value in the assay on C57BL/6 mice [2] (setting [5]) was 121.75 ± 24.14 time. For the same compound, the “Number of Autonomic activity (time)” value with C57BL/6 mice [2] (Experiment 2) was determined as 102.0 ± 14.91 time.

For the origin of these results see patent publication US10071989B2, “Substituted cinnamamide derivative, preparation method and use thereof” (TASLY PHARMACEUTICAL GROUP CO., LTD., priority 2011, dated 2018).
